{
  "source": "patent US20200030388A1",
  "about": "“COMPOSITIONS FOR MODIFYING GUT MICROBIOTA” (priority 2017, published 2020)",
  "format_in_all_cases": "in vivo, mouse",
  "key": {"[1]": {"test_system": "HFD-induced Obesity in C57BL/6 mice", "test": "HFD-induced obesity in C57BL/6 mice, 13 weeks (Example 2)", "details": "for GPT / HDL / LDL / LDL/HDL / T-CHO / TG: plasma; for percentage frequency of adipocytes, Adipocyte Size area 2000 / percentage frequency of adipocytes, Adipocyte Size area 15000 / percentage frequency of adipocytes, Adipocyte Size area >350000: perigonadal adipose tissue", "text": "After one week of acclimation, animals were randomly distributed into normal diet (ND, 15% energy as fat), HFD (50% energy as fat), and HFD with 0.1% or 0.5% garcinol groups of eight mice in each group for 13 weeks. The experimental diets were modified from the Purina 5001 diet (LabDiet, PMI Nutrition International, St. Louis, Mo., USA). The animals had ad libitum access to food and water. Food cups were replenished with a fresh diet every day. […] Upon termination of the study, the animals were sacrificed by CO2 asphyxiation and dissected, and the weights of their whole bodies and selected tissues, including the liver, kidney, spleen, adipose tissues (perigonadal, retroperitoneal, and mesenteric fat) and serum were immediately collected, weighed, and photographed.\nSections of 3-5 μm in thickness were cut, deparaffinized, rehydrated, stained with H&E, and subjected to photomicroscopic assessment. Adipocyte size was determined using Image J software (Rasband, W. S., ImageJ, U.S. National Institutes of Health, Bethesda, Md., USA).\nBlood samples were collected from the left ventricle under anesthesia. The samples were mixed in 10 μL of heparin sodium and centrifuged at 3500 rpm and 4° C. for 10 min. The plasma was then stored at −80° C. until use. Glutamic-pyruvic transaminase (GPT), total cholesterol (TC), TG, high-density lipoprotein (HDL), and low-density lipoprotein (LDL) levels were analyzed at the National Laboratory Animal Center, NLAC (Taipei, Taiwan) on a 7080 Biochemical Analyzer (Hitachi, Tokyo, Japan) according to the manufacturer's instructions."}, "[2]": {"test_system": "HFD-fed C57BL/6 male mice", "test": "Garcinol versus garcinol blend in HFD-fed C57BL/6 mice, 16 weeks (Example 3)", "procedure": "The present invention studied the anti-obesity effects of garcinol compared to a composition comprising garcinol, pterostilbene and anthocyanin (garcinol blend (GB) in mammals. The study was conducted in vivo on 5 weeks old C57BL/6 male mice. A total of 42 mice were involved in this study with 6 groups of 7 mice each. The groups were divided as in table 8.\nThe high fat diet (HFD) groups were fed 45% high fat diet for 16 weeks for the induction of obesity and concurrently administered the test substance as indicated in the aforesaid table. The normal group was fed with normal diet for 16 weeks.\nBody weight was monitored weekly, and the average body weight of each group (n=7) was expressed as the means±SE."}, "[3]": {"test_system": "Gut Microbiota in HFD-Fed Mice", "test": "Gut microbiota classification by next generation sequencing (Example 4)", "procedure": "Total DNA was extracted from fresh fecal samples by using the innuPREP Stool DNA kit (Analytik Jena AG, Jena, Germany) according to the manufacturer's instructions. According to the concentration, DNA was diluted to 1 ng μ L^−1 using sterile water. 6SrRNA/18SrRNA/ITS genes of distinct region (16SV4/16SV3/16SV3-V4/16SV4-V5, 18S V4/18S V9, ITS1/ITS2, Arc V4) were amplified using a specific primer (e.g. 16SV4: 515F-806R, 18S V4: 528F-706R, and 18S V9: 1380F-1510R) with a barcode. All PCR reactions were carried out using a Phusion® High-Fidelity PCR master mix (New England Biolabs, Ipswich, Mass., USA). The PCR products were mixed in ratios of equal density. Then, the mixed PCR products were purified using a Qiagen gel extraction kit (Qiagen, Hilden, Germany). Sequencing libraries were generated using the TruSeq® DNA PCR-free sample preparation kit (Illumina, San Diego, Calif., USA) following the manufacturer's recommendations, and index codes were added. The library quality was assessed using the Qubit@ 2.0 Fluorometer (Thermo Scientific) and Agilent Bioanalyzer 2100 system. Lastly, the library was sequenced using an Illumina HiSeq 2500 platform, and 250 bp paired-end reads were generated. The classification was based on the Greengenes database (https://greengenes.lbl.gov/)."}},
  "note": "Marks after values point to notes of the source that are not given here.",
  "data": [
    {"smiles": "C=C(C)[C@@H](CC=C(C)C)C[C@@]12C[C@@H](CC=C(C)C)C(C)(C)[C@@](CC=C(C)C)(C(=O)C(C(=O)c3ccc(O)c(O)c3)=C1O)C2=O", "note": "[garcinol]", "values": [
      {"measurement": "decrease of mesenteric fat weight compared to the HFD group", "setting": "[1]; 0.5% garcinol, HFD, 13 weeks", "result": 77.7, "unit": "%"},
      {"measurement": "decrease of perigonadal fat weight compared to the HFD group", "setting": "[1]; 0.5% garcinol, HFD, 13 weeks", "result": 85.1, "unit": "%"},
      {"measurement": "decrease of retroperitoneal fat weight compared to the HFD group", "setting": "[1]; 0.5% garcinol, HFD, 13 weeks", "result": 92.4, "unit": "%"},
      {"measurement": "GPT", "setting": "[1]; HFD + 0.1% Gar", "result": "20.5 ± 7.26^b U/L"},
      {"measurement": "HDL", "setting": "[1]; HFD + 0.1% Gar", "result": "152.6 ± 9.73^a mg/dL"},
      {"measurement": "LDL", "setting": "[1]; HFD + 0.1% Gar", "result": "33.3 ± 0.72^b mg/dL"},
      {"measurement": "LDL/HDL", "setting": "[1]; HFD + 0.1% Gar", "result": "0.22 ± 0.02^b"},
      {"measurement": "T-CHO", "setting": "[1]; HFD + 0.1% Gar", "result": "179.7 ± 11.85^b mg/dL"},
      {"measurement": "TG", "setting": "[1]; HFD + 0.1% Gar", "result": "69.6 ± 19.90^ab mg/dL"},
      {"measurement": "percentage frequency of adipocytes, Adipocyte Size area 2000", "setting": "[1]; HFD + 0.1% garcinol", "result": "8.38 ± 5.3^b"},
      {"measurement": "percentage frequency of adipocytes, Adipocyte Size area 15000", "setting": "[1]; HFD + 0.1% garcinol", "result": "4.03 ± 1.0^a"},
      {"measurement": "percentage frequency of adipocytes, Adipocyte Size area >350000", "setting": "[1]; HFD + 0.1% garcinol", "result": "3.32 ± 1.5^b"},
      {"measurement": "GPT", "setting": "[1]; HFD + 0.5% Gar", "result": "27.6 ± 3.72^ab U/L"},
      {"measurement": "HDL", "setting": "[1]; HFD + 0.5% Gar", "result": "118.7 ± 13.22^b mg/dL"},
      {"measurement": "LDL", "setting": "[1]; HFD + 0.5% Gar", "result": "24.9 ± 4.47^c mg/dL"},
      {"measurement": "LDL/HDL", "setting": "[1]; HFD + 0.5% Gar", "result": "0.21 ± 0.03^b"},
      {"measurement": "T-CHO", "setting": "[1]; HFD + 0.5% Gar", "result": "137.9 ± 11.78^c mg/dL"},
      {"measurement": "TG", "setting": "[1]; HFD + 0.5% Gar", "result": "55.6 ± 4.95^b mg/dL"},
      {"measurement": "percentage frequency of adipocytes, Adipocyte Size area 2000", "setting": "[1]; HFD + 0.5% garcinol", "result": "19.2 ± 3.9^a"},
      {"measurement": "percentage frequency of adipocytes, Adipocyte Size area 15000", "setting": "[1]; HFD + 0.5% garcinol", "result": "1.36 ± 0.9^b"},
      {"measurement": "percentage frequency of adipocytes, Adipocyte Size area >350000", "setting": "[1]; HFD + 0.5% garcinol", "result": "0.00 ± 0.0^c"},
      {"measurement": "Final weight", "setting": "[2]; HFD + 0.1% test substance", "result": "32.1 ± 2.6^b g"},
      {"measurement": "Weight gain", "setting": "[2]; HFD + 0.1% test substance", "result": "10.5 ± 2.1^b g"},
      {"measurement": "Final weight", "setting": "[2]; HFD + 0.5% test substance", "result": "25.4 ± 0.8^b g"},
      {"measurement": "Weight gain", "setting": "[2]; HFD + 0.5% test substance", "result": "3.9 ± 0.6^b g"},
      {"measurement": "abundance of Firmicutes", "setting": "[3]; 12 weeks (HFD group 43.0%)", "result": 33.9, "unit": "%"},
      {"measurement": "abundance of Bacteroidetes", "setting": "[3]; 12 weeks (HFD group 50.2%)", "result": 62.4, "unit": "%"},
      {"measurement": "OTUs difference between ND and HFD groups (Venn diagram)", "setting": "[3]; 12 weeks, FIG. 23A", "result": 26, "unit": "OTUs"}
    ]}
  ]
}
